Laboratory results: paper PMC12668310, “High‐Throughput Synthesis and Screening of a Cyanimide Library Identifies Selective Inhibitors of ISG15‐Specific Protease mUSP18” (Angewandte Chemie (International Ed. in English), 2025)

Molecular target: T1, mUSP18 (Mus musculus, UniProt Q9WTV6)
T1 construct: (46-368); His-tag (N); made in house
T1 sequence (Q9WTV6 46-368): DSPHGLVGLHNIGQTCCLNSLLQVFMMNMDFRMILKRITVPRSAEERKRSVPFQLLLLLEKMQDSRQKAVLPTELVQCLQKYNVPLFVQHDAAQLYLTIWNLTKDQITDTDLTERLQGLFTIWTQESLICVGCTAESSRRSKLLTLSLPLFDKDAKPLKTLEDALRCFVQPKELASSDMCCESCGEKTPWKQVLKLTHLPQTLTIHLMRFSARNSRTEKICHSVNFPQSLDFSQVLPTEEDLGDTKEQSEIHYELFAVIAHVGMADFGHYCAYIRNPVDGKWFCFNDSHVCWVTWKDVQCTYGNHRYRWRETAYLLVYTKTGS
Experiment: Covalent complex formation, intact protein mass spectrometry
Assay type: binding, murine
Conditions: 1.4 μM mUSP18, 14 µM compound, 30 min
Protocol: We further explored the potential of our mUSP18 hits. […] Based on previous data, these cyanimides likely bind to mUSP18 in a covalent manner. Indeed, intact protein mass spectrometry analysis confirmed the formation of a covalent stoichiometric mUSP18‐BB07CA902 complex, showing a mass difference of 311 Da, which corresponds to the addition of exactly one molecule of BB07CA902 (Figures 5c, S9). […] (Figure S9).
High-throughput screening
The screens were performed at room temperature in “flat bottom, non-treated, black […]
µM. The compounds (10 nL each) were transferred from the 1 mM daughter plates to the […]
Four wells containing DMSO
(10 nL) and four wells containing NEM (10 mM final concentration) were used in each plate […]
The percentage inhibition was calculated for each well using the […]
Where FIx is the fluorescence intensity of each well, FIpos is the average fluorescence intensity of the positive (NEM) control wells, and FIneg is the average fluorescence intensity of the negative (DMSO) control wells. […]
Samples were then diluted 3-fold with water and analyzed by mass spectrometry by injecting 2 μL into a Waters XEVO-G2 XS Q-TOF mass spectrometer equipped with an electrospray ion source in positive mode (capillary voltage 1.2 kV, desolvation gas flow 900 L/h, T = 60 °C) with a resolution of R = 26,000. […]

## Cc1cc(C(=O)N[C@H]2C[C@@H]3CN(C#N)C[C@@H]3C2)ccc1C(C)C [BB07CA902]
  mass difference of covalent stoichiometric mUSP18-inhibitor complex: 311 Da
